Results as given in patent publication US20060134126A1, “Peptide constructs for treating disease” (priority 2002, published 2006).
Ends that are not written are not given here.

Columns and labels:
[1] = system: P. yoelii (non lethal strain 17XNL) sporozoites; experiment: Comparison of lots and forms of derG in malaria system (Table 9); format: in vivo; conditions: A/J mice, 5 μg two times, TiterMax
Protocol: Four (4) groups of 10 mice (4-to 6-wk-old female A/J) were subcutaneously two times at 3-week intervals with 5 μg of the derG peptide, emulsified in TiterMax™ at 1:1 ratio as previously described. Two other groups of mice treated with TiterMax™ alone and untreated mice served as controls. Fourteen days after the second treatment mice were intravenously challenged with 100 P. yoelii (non lethal strain 17XNL ) sporozoites. Parasitemia was determined by microscopic examination of 200 oil-immersion fields of Geimsa stained-thin blood smears obtained from the mice at 5, 7, and 14 days post challenge.
In particular, the derG(19) peptide contains an additional glycine amino acid inserted between the A 140 and V 142 residues. The rationale for the insertion was that these two residues are involved in the CD4 interaction as disclosed in Konig et al. “MHC class II interaction with CD4 medicated by a region analogous to the MHC class I binding site for CD8”, Nature 1992; 356:796-798.

[2] = system: plasmodium yoelii sporozoites; experiment: Protection from sporozoite challenge, TCBL derG in inbred mice (Tables 5, 6); format: in vivo
Text: (§1) Next using another antigen with B and T cell activity two inbred strains of mice, (A/J and Balb/c) were immunized twice at three week intervals with the L.E.A.P.S.™ constructs (J-GF/SF or der-SF/GF) or with the subunits (SF/GF, J and derG) used to make heteroconjugated peptides, and were challenged with 100 Plasmodium yoelii sporozoites 2 weeks after the second immunization and protection efficacy evaluated as before. Four days before challenge, serum was collected from individual animals, pooled and analyzed immediately for antibody to SF/GF peptide sera collected from immunized and protected mice 15 days post challenge were pooled and used for IFN-γ determination by ELISA procedures.
Another experiment similar to the first except only a single strain of mice (A/J) was used with decreasing doses of the derG in order to evaluate potency as shown in Table 6.

[3] = system: IFN-γ; experiment: Serum IFN-γ by ELISA; format: in vivo, mouse; conditions: A/J mice, sera pooled 15 days post challenge
Text: as §1

[4] = system: SF/GF peptide; experiment: Serum antibody ELISA to SF/GF peptide; format: in vivo, mouse
Text: as §1

[5] = system: HSV-1; experiment: Scarification-zosteriform spread model of HSV infection; format: in vivo; conditions: A/J mice
Protocol: Groups of 4-to 6-wk old female A/J mice were subcutaneously inoculated once with 25 μg of the derG peptide emulsified in ISA51 adjuvant at a 1:1 ratio before challenge unless otherwise specified. Untreated mice and mice treated with adjuvant served as additional controls. The mice were challenged as specified in methods well known to those of ordinary skill in the art and as exemplified by Goel et al. (“The Ability of an HSV Strain to Initiate Zosteriform Spread Correlates with its Neuroinvasive Disease Potential”, Arch Virol 147:763-773 (2002)) and Goel et al., (“A Modification Of The Epidermal Scarification Model Of Herpes Simplex Virus Infection To Achieve A Reproducible And Uniform Progression Of Disease”, J Virol Meth 106;153-8 (2002)).
In particular, hair is removed by shaving and then Nair® is applied. Twenty-fours later the depilated back of a mouse is scratched or abraded to expose the susceptible epidermal layer and virus rubbed in. To provide more detail, 10 μl of a virus suspension containing 6×10^4 plaque forming-units was pipetted onto a 0.5 cm square of skin on mouse dorsal surface, which was previously abraded using sand paper glued on a pencil eraser. In untreated animals, the primary lesion developed at the inoculation site within 3 days and spread to the associated root, followed by anterograde transport and formation of secondary lesions at sites along the dermatome of the nerves within 5 days. In severe cases, animals died within 8 days post viral challenge. Disease progression and survival were monitored for at least 10 days. […] The progression and the severity of the lesions was scored from 0 to 7 (death). This model allows for discrimination of the disease progression (local site, neuronal spread, extent of lesion at the dermatome, death) at which the immune system blocks viral progression. In some experiments modifications in the timing, route of administration and mouse strain were evaluated for efficacy of CEL-1000.

[6] = system: B16 melanoma; experiment: Allogeneic murine B16 melanoma protection model; format: in vivo, mouse; conditions: for Protection: in combination with allogeneic cells
Protocol: In particular, C57/b16 (H2^b) mice are vaccinated with the allogeneic melanoma K1735 (H2^k) at least twice on weekly intervals and then challenged with syngeneic B16 (H2^b) tumors. […] This is clear evidence of cross-priming and the existence of shared antigens.
Peptide constructs were prepared using as T cell binding ligand, either derG (SEQ ID NO. 7), Peptide G (SEQ ID NO. 5). The peptides are synthesized using the FMOC procedure and a double coupling protocol for the first 8 residues. Usually the peptide is prepared with the carboxyl terminus as an amide form. All of the peptides are purified using prepatative HPLC, and analyzed by an analytical HPLC, amino acid analysis and mass spectrophotometer. The peptides are greater than 95%, usually greater than 98%, pure by HPLC criteria. The dry peptides are stored in vials with desiccant at −8° C. • 1) Eight groups of seven mice were injected with 200 μl of the vaccine as shown in FIG. 1. • 2) This was repeated after 7 days. • 3) A further 7 days later, mice were challenged with 200 μl saline containing 5×10^4 live B16 on the contralateral side to vaccination. • 4) Mice were sacrificed when tumor size exceeded 15 mm in either axis.
In order more precisely model the use of clinical allogeneic vaccines, a frozen vaccine was used in the mouse model wherein K-1735 cells were thawed just prior to use. Efficacy in the protection model ranged from 40-10%. Additionally, the antigen TRP2 (a.a. 180-188), found in B16 melanoma, was engineered into L.E.A.P.S.™ constructs and was tested in various permutations in the allogeneic murine melanoma model. Optimization may be necessary.

[7] = system: plasmodium yoelii sporozoites; experiment: Protection from sporozoite challenge in different mouse strains (Table 7); format: in vivo; conditions: 25 μg, 2 times at 3 week intervals, TiterMax
Protocol: Since derG alone was able to protect A/J mice against Plasmodium yoelii sporozoites challenge, in the absence of malaria antigen, a similar experiment was conducted to evaluate the protective efficacy of derG in three other mouse strains: BALB/c (H2d), C3H/HeJ (H2K) and hybrid CAF1 (A/J×BALB/c).
Groups of 10 mice were pre-treated 2 times at 3 week intervals with 25 μg of derG in TiterMax™ adjuvant and challenged with 100 Plasmodium yoelii sporozoites. Protective efficacy was evaluated as described above.

[8] = system: plasmodium yoelii sporozoites; experiment: Malaria protection assay, G/W peptides (Table 4); format: in vivo; conditions: Experiment 2, outbred CD-1 mice; 25 μg twice; 200 sporozoites
Protocol: In particular, mice were immunized twice at three week intervals with 25 μg of the subunits (W or G) used to make the L.E.A.P.S.™ construct (GW), and were challenged with 200 plasmodium yoelii sporozoites 2 weeks after the second immunization. Protective efficacy was evaluated by thin blood smears every other day starting 4 days after the challenge. Mice were considered protected if no blood stage parasites were detectable by 14 days after challenge.

[9] = Balb/c mice, dose 25 μg, Table 5
[10] = A/J mice, dose 5 μg, serum pool 4 days before challenge
[11] = A/J mice, dose 25 μg, serum pool 4 days before challenge
[12] = A/J mice, dose 1.25 μg, Table 6

| Substance | Protection (%) ([2]; A/J mice, dose 5 μg, Table 5) | Protection Protected/Tested ([2]; A/J mice, dose 5 μg, Table 5) | Protection (%) ([2]; A/J mice, dose 5 μg, Table 6) | Protection Protected/Tested ([2]; A/J mice, dose 5 μg, Table 6) | Protection (%) ([2]; A/J mice, dose 25 μg, Table 5) | Protection Protected/Tested ([2]; A/J mice, dose 25 μg, Table 5) | Protection (%) [2, 9] | Protection Protected/Tested [2, 9] | IFN-γ serum ([3]; dose 5 μg) | IFN-γ serum ([3]; dose 25 μg) | Antibody ELISA A490* [4, 10] | Antibody ELISA A490* [4, 11] | Antibody ELISA A490* ([4]; Balb/c mice, dose 25 μg) | Protection (%) ([2]; A/J mice, dose 10 μg, Table 6) | Protection Protected/Tested ([2]; A/J mice, dose 10 μg, Table 6) | also measured |
| --- | --- | --- | --- | --- | --- | --- | --- | --- | --- | --- | --- | --- | --- | --- | --- | --- |
| DGQEEKAGGVVSTGLIGGGamide (DGQEEKAGGVVSTGLIGGG-NH2) [derG(19), derG with an additional glycine inserted between the A 140 and V 142 residues] |  |  |  |  |  |  |  |  |  |  |  |  |  |  |  | % Protected ([1]; Lot 1): 40%; Protected/Total ([1]; Lot 1): 4/10; % Protected ([1]; Lot 2): 30%; Protected/Total ([1]; Lot 2): 3/10; % Protected ([1]; Lot 3): 50%; Protected/Total ([1]; Lot 3): 5/10 |
| DGQEEKAGVVSTGLIGGGSFPMNEESPLGFSPEEMEAVASKFR [derG-GF/SF] | (80%) | 8/10 | (10%) | 1/10 | (100%) | 10/10 | (0%) | 0/10 | 7,000 pg/mL | 6,000 pg/mL | 1,933 | 10,694 | 17,019 |  |  |  |
| DGQEEKAGVVSTGLIGGGamide (DGQEEKAGVVSTGLIGGG-NH2) [derG, modified fragment from MHC II β-chain (a.a.135-149)] | (100%) | 10/10 | (100%) | 10/10 | (100%) | 10/10 | (0%) | 0/10 | 40,000 pg/mL | 18,000 pg/mL | 2 | 2 | 4 |  |  | protection from lethal HSV-1 challenge [5]: protects; Protection ([5]; intramuscularly 2 weeks prior to challenge, without adjuvant, in aqueous solution): 100%; onset of symptoms, morbidity and mortality ([5]; single dose of 25 μg, timing of administration): delay in onset of symptoms; Protection (%) [2, 12]: (60%); Protection Protected/Tested [2, 12]: 6/10; Protection (%) ([2]; A/J mice, dose 2.5 μg, Table 6): (80%); Protection Protected/Tested ([2]; A/J mice, dose 2.5 μg, Table 6): 9/10; % Protected ([1]; form 18): 90%; Protected/Total ([1]; form 18): 9/10; Protection ([6]; first value named of two experiments): 30%; Protection ([6]; second value named of two experiments): 40%; Protection ([7]; A/J mice): 80; Protection ([7]; BALB/c mice): 0; Protection ([7]; C3H mice): 40; Protection ([7]; CAF1 hybrid mice): 40 |
| DLLKNGERIEKVEGGG SFPMNEESPLGFSPEEMEAVASKFR [J-GF/SF] | (10%) | 1/10 |  |  | (100%) | 10/10 | (0%) | 0/10 | 0 pg/mL | 4,000 pg/mL | 1,103 | 6,121 | 11,454 | (56%) | 5/9 |  |
| DLLKNGERIEKVEGGG [J, short fragment from β2-microglobulin (a.a. 38-50)] | (10%) | 1/10 |  |  | (10%) | 1/10 | (0%) | 0/10 |  |  | 1 | 2 | 2 | (10%) | 1/10 |  |
| NGQEEKAGVVSTGLIGGGamide (NGQEEKAGVVSTGLIGGG-NH2) [G + TM] |  |  |  |  |  |  |  |  |  |  |  |  |  |  |  | # Protected/# tested [8]: 6/16; % protection [8]: 38%; activity compared with derG ([6]; differences from derG): much less active |
| SFPMNEESPLGFSPEEMEAVASKFR [GF/SF] | (30%) | 3/10 | (10%) | 1/10 | (100%) | 10/10 |  |  | 10,000 pg/mL | 12,500 pg/mL | 8,443 | 19,970 |  | (50%) | 5/10 |  |
